Tests used:
[1] = test system: platelets (platelet rich plasma); test: Inhibition of platelet aggregation, ADP as agonist; format: cell-based; settings: ADP 4 μM, human PRP, read-out: % Reduction in Aggregation ADP (4 μM); for inhibition at 30 µM: compound 30 μM
Procedure: (§1) Platelet rich plasma (PRP) was obtained by drawing whole blood from normal human donors (not on any medication) into sodium citrate tubes (3.2%), and centrifuging at 160×g for about 10 minutes. Platelet poor plasma (PPP) was obtained by centrifuging the remainder of the sample after the platelets were removed at 800×g for about 10 minutes. The PRP was adjusted to a count of 280×10^9/L using a mixture of PRP and PPP. The platelets (200 μL) were incubated with the test compounds (25 μL) adjusted to various concentrations (5, 10, 20, 30, 50, and 100 μM) for about 30 minutes at room temperature (approximate final platelet count in the incubation mixture of 250×10^9/L). The samples were incubated for about 3 minutes at about 37° C., and then transferred to the mixing wells of a Chrono-log 4 channel aggregometer (Chrono-log Corp., Havertown, Pa.). After baselines were established, agonist (25 μL of 40 μM ADP (Sigma, St. Louis, Mo.) or 25 μL of 50 μg/mL and 10 μg/mL collagen (Helena Laboratories, Beaumont, Tex.) or 25 μL of 120 μM thrombin receptor activating peptide (TRAP) (Sigma)) was then added. Aggregation was monitored for 5 minutes at 37° C. with stirring (1000 rpm). The amplitude and slope of each tracing were calculated to determine the amount of aggregation. Control samples were performed using only solvent. The % reduction in aggregation was calculated for each sample compared to the proper solvent control.

[2] = target: T1, Human FXa (Homo sapiens, UniProt P00742); test: Determination of Anti-Factor Xa (Fxa) Activity; format: biochemical; settings: competitive inhibition; substrate Pefachrome Xa; pH 7.5
T1 construct: Determination of Anti-Factor Xa (Fxa) Activity; purchased Calbiochem
Procedure: The test compounds (40 μL) adjusted to various concentrations (0.25 to 100 μM) were incubated with 5 nM Human FXa (Calbiochem, San Diego, Calif.) enzyme in 125 mM Tris [Tris(hydroxymethyl)aminomethane] buffer (pH 7.5) containing 375 mM sodium chloride and 0.25% polyethylene glycol (MW 8000) (80 μL) at room temperature for about 30 minutes. 80 μL of synthetic substrate Pefachrome® Xa (Pentapharm, Basel, Switzerland), adjusted to various concentrations from 125 μM to 1.25 mM, was added. The activity was measured at 37° C. by monitoring absorbance at 405 nm for 15 minutes using a FLUOstar OPTIMA™ (BMG Labtech GmbH, Offenburg, Germany) microplate reader. Control sample was the solvent alone. Each test compound was analyzed twice using 4 concentrations of compound plus control (in duplicate) with 5 concentrations of substrate (50, 100, 200, 300 and 500 μM). The specific activity (ΔA405/min/nM enzyme) was determined for each data point. The Ki for competitive inhibition was then determined for each test compound using the Enzyme Kinetics module of Sigmaplot 8.0 (SPSS Inc., Chicago, Ill.).

[3] = test system: platelets (platelet rich plasma); test: Inhibition of platelet aggregation, collagen as agonist; format: cell-based; settings: human PRP; for inhibition at 30 µM: compound 30 μM; for inhibition at 5 µM: compound 5 μM
Procedure: as §1

[4] = test system: platelets (platelet rich plasma); test: Inhibition of platelet aggregation, thrombin receptor activating peptide (TRAP) as agonist; format: cell-based; settings: TRAP 12 μM, human PRP, read-out: % Reduction in Aggregation TRAP (12 μM); for inhibition at 30 µM: compound 30 μM
Procedure: as §1

[5] = target: T2, Human Thrombin (Homo sapiens, UniProt P00734); test: Determination of Anti-Thrombin (Factor IIa) Activity; format: biochemical; settings: competitive inhibition; substrate Pefachrome Thr; pH 8.3
T2 construct: Determination of Anti-Thrombin (Factor IIa) Activity; purchased Calbiochem
Procedure: The test compounds (40 μL) adjusted to various concentrations (0.25 to 100 μM) were incubated with Human Thrombin (Calbiochem) enzyme (5 nM) in 31 mM Tris buffer (pH 8.3) containing 81 mM sodium chloride and 0.63% bovine serum albumin (fraction V)(80 μL) at room temperature for about 30 minutes. 80 μL of Pefachrome® Thr (Pentapharm) was adjusted to various concentrations, from 62.5 μM to 1.25 mM. The activity was measured at about 37° C. by monitoring absorbance at 405 nm for about 15 minutes using a FLUOstar OPTIMA™. Control sample was the solvent alone. Each test compound was analyzed twice using 4 concentrations of compound plus control (in duplicate) with 5 concentrations of substrate (50, 100, 200, 300 and 500 μM). The specific activity (ΔA405/min/nM enzyme) was determined for each data point. The Ki for competitive inhibition was then determined for each test compound using the Enzyme Kinetics module of Sigmaplot 8.0 (SPSS).

[6] = collagen 1 μg/mL, read-out: % Reduction in Aggregation Collagen (1 μg/mL)
[7] = collagen 5 μg/mL, read-out: % Reduction in Aggregation Collagen (5 μg/mL)

T1 sequence (P00742 235-488 limits assumed): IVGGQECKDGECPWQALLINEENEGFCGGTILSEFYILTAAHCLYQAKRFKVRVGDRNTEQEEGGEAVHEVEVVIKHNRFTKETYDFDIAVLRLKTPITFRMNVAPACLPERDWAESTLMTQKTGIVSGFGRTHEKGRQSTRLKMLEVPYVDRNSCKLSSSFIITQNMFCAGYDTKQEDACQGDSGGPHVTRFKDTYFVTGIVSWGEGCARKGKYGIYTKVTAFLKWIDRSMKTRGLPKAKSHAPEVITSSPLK
T1 sequence (P00742 41-179 partner limits assumed): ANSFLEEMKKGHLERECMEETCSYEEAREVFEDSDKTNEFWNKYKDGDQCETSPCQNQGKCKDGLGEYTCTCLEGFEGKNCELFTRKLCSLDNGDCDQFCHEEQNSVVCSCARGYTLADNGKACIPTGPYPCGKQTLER

| Compound | Ki [2] | Ki [5] | inhibition at 30 µM [1] | inhibition at 30 µM [3, 6] | inhibition at 30 µM [3, 7] | inhibition at 30 µM [4] | inhibition at 10 µM ([1]; compound 10 μM) | inhibition at 10 µM ([3]; compound 10 μM, collagen 1 μg/mL, read-out: % Reduction in Aggregation Collagen (1 μg/mL)) | inhibition at 10 µM ([4]; compound 10 μM) | inhibition at 50 µM ([1]; compound 50 μM) | inhibition at 50 µM ([3]; compound 50 μM, collagen 1 μg/mL, read-out: % Reduction in Aggregation Collagen (1 μg/mL)) | inhibition at 50 µM ([4]; compound 50 μM) | inhibition at 5 µM ([1]; compound 5 μM) | inhibition at 5 µM [3, 6] | inhibition at 5 µM [3, 7] | inhibition at 5 µM ([4]; compound 5 μM) |
| --- | --- | --- | --- | --- | --- | --- | --- | --- | --- | --- | --- | --- | --- | --- | --- | --- |
| Cc1ncc(CNc2ccc(-c3ccc(C(=N)N)cc3)cc2)c(C)c1OCc1ccc(C(=N)N)cc1 [Compound 25, 4′-{[5-(4-Carbamimidoyl-benzyloxy)-4,6-dimethyl-pyridin-3-ylmethyl]-amino}-biphenyl-4-carboxamidine] | 0.32 µM | 3.77 µM | 93% | 96% | 52% | 95% |  |  |  |  |  |  |  |  |  |  |
| Cc1ncc(CNc2ccc(C(=N)N)cc2)c(C)c1OCc1ccc(C(=N)N)cc1 [Compound 31, 4-{[5-(4-Carbamimidoyl-benzyloxy)-4,6-dimethyl-pyridin-3-ylmethyl]-amino}-benzamidine] | 1.34 µM | 0.062 µM |  |  |  |  | 80% | 83% | 84% |  |  |  |  |  |  |  |
| Cc1ncc(CNc2ccc(-c3ccc(C(=N)N)cc3)cc2)c(CNCCCCCC(=O)O)c1OCc1ccc(C(=N)N)cc1 [Compound 56, 6-({3-(4-Carbamimidoyl-benzyloxy)-5-[(4′-carbamimidoyl-biphenyl-4-ylamino)-methyl]-2-methyl-pyridin-4-ylmethyl}-amino) hexanoic acid] | 6.2 µM | 0.848 µM |  |  |  |  |  |  |  |  |  |  | 96% | 91% | 63% | 90% |
| Cc1ncc(CNc2ccc(-c3ccc(C(=N)N)cc3)cn2)c(CO)c1OCc1ccc(C(=N)N)cc1 [Compound 60] | 25 µM | 11 µM | 87% | 47% | 26% | 89% |  |  |  |  |  |  |  |  |  |  |

The next molecules have a lower Ki [2] than those just listed; values first:

| Ki [2] | Ki [5] | Compound | inhibition at 30 µM [1] | inhibition at 30 µM [3, 6] | inhibition at 30 µM [3, 7] | inhibition at 30 µM [4] | inhibition at 10 µM ([1]; compound 10 μM) | inhibition at 10 µM ([3]; compound 10 μM, collagen 1 μg/mL, read-out: % Reduction in Aggregation Collagen (1 μg/mL)) | inhibition at 10 µM ([4]; compound 10 μM) | inhibition at 50 µM ([1]; compound 50 μM) | inhibition at 50 µM ([3]; compound 50 μM, collagen 1 μg/mL, read-out: % Reduction in Aggregation Collagen (1 μg/mL)) | inhibition at 50 µM ([4]; compound 50 μM) | inhibition at 5 µM ([1]; compound 5 μM) | inhibition at 5 µM [3, 6] | inhibition at 5 µM [3, 7] | inhibition at 5 µM ([4]; compound 5 μM) |
| --- | --- | --- | --- | --- | --- | --- | --- | --- | --- | --- | --- | --- | --- | --- | --- | --- |
| 0.284 µM | 0.031 µM | Cc1ncc(CNc2ccc(C(=N)N)cc2)c(C)c1OCc1cccc(C(=N)N)c1 [Compound 33, 4-{[5-(3-Carbamimidoyl-benzyloxy)-4,6-dimethyl-pyridin-3-ylmethyl]-amino}-benzamidine] |  |  |  |  |  |  |  | 84% | 81% | 79% |  |  |  |  |
| 0.14 µM | 4.6 µM | Cc1ncc(CNc2ccc(-c3ccc(C(=N)N)cc3)cc2)c(C)c1OCc1cccc(C(=N)N)c1 [Compound 29, 4′-{[5-(3-Carbamimidoyl-benzyloxy)-4,6-dimethyl-pyridin-3-ylmethyl]-amino}-biphenyl-4-carboxamidine] | 52% | 32% | 15% | 32% |  |  |  |  |  |  |  |  |  |  |
